According to patent US7699995B2, “Water treatment method” (priority 2006, dated 2010):
Marks after values point to notes of the source that are not given here.

How the values were obtained:
[1] = buffer, pH 9
Experimental: pH 9 buffer containing 0.069 M boric acid, 0.017 M citric acid, 0.066 M sodium phosphate was prepared in distilled water. Biocide was dosed into the pH 9 buffer solution and stored at 70° C. in a heat block. The samples were examined for active ingredient concentration at the time points after 5 hours, and 1, 3, 7, 23, 30, 35 and 56 days. Initial biocide doses were 166 ppm MI, 199 ppm BIT and 150 ppm BNPD.
The samples were evaluated for active ingredient concentration via High Pressure Liquid Chromatography. Samples were taken from the heating blocks and allowed to cool to room temperature for 30 minutes. The samples were then diluted 1:20 in deionized water by adding 9.5 ml of deionized water to 0.5 grams of the samples in a 25 ml glass sample vial. The samples were mixed for 15 seconds and transferred to HPLC sample vials for analysis.

[2] = test system: natural, resident populations of Mycobacterium; assay: Eradication of mycobacteria in naturally contaminated in-use metalworking fluids; format: cell-based; details: for No. of Fluids with ≧99% Kill (2-log reduction): of six fluids, 48 hours
Experimental: A comparative study was conducted evaluating six metalworking fluid biocides versus natural, resident populations of Mycobacterium from six in-use metalworking fluids. CMIT/MIT, CMIT/MIT/MCC, MIT, BIT, triazine, and PCMC microbicides were tested under controlled laboratory conditions to determine their efficacy at the maximum manufacturer's recommended dose rate (Table 2). The metalworking fluids were known to contain high levels of mycobacteria prior to dosing with biocides. Samples were then dosed with biocides, incubated with agitation at room temperature and viable mycobacteria counts determined after 48 hours by plating onto Middlebrook 7H10 medium, with Tween 80, glycerin, cyclohexamide, chloramphenicol, and gentamycin to suppress the growth of unwanted microorganisms.
The six metalworking fluid samples containing mycobacteria study from Example 7, were also tested using the same biocides with dosing at 50% of the maximum manufacturer's recommended rate (Table 2) under the same conditions. These metalworking fluids were known to contain high levels of mycobacteria prior to dosing with biocides. Samples were then dosed with biocides, incubated with agitation at room temperature and viable mycobacteria counts determined after 48 hours by plating onto Middlebrook 7H10 medium, with Tween 80, glycerin, cyclohexamide, chloramphenicol, and gentamycin to suppress the growth of unwanted microorganisms.

[3] = test system: Mycobacterium immunogenum (ATCC 700505); assay: MBC test, transfer from MIC plates to fresh media; format: cell-based; details: M. immunogenum, no survivors after 2 days in fresh media
Experimental: (§1) Bacterial strains tested included Mycobacterium chelonae (ATCC 14472) and Mycobacterium immunogenum (ATCC 700505). Mycobacterial cultures were grown overnight at 30° C. (M. immunogenum) or 37° C. (M. chelonae), in a rotary shaking bath in Middlebrook […] with Middlebrook enrichment. A 1:20 dilution of the overnight culture was made into the appropriate test media and inoculated to give a final concentration of 10^6 to 10^7 CFU/ml.
(§2) MBC tests were conducted by transferring samples from the MIC test samples into fresh media and observing for growth of the culture. Growth was determined as above. In this test using Biomek 2000 Workstation, 10 μl samples taken from the 96-well MIC plates were placed in […] of fresh growth media to determine the number of surviving organisms for the same gradient of biocide concentrations. These plates were incubated and read in the same fashion as the MIC plates.

[4] = test system: Mycobacterium chelonae (ATCC 14472); assay: MBC test, transfer from MIC plates to fresh media; format: cell-based; details: M. chelonae, no survivors after 2 days in fresh media
Experimental: as §1, §2

[5] = test system: Mycobacterium immunogenum (ATCC 700505); assay: High resolution MIC test, pure culture, 1/10x TSB; format: cell-based; details: M. immunogenum, 24 hours at 30° C.
Experimental: (§3) The lowest concentration of microbicide required to inhibit bacteria was determined by a high resolution MIC test. Varying amounts of each microbicide were added to media in a 96-well microtiter plate. The media used for the MIC tests was 10% Trypicase Soy Broth ( 1/10× TSB). […] serial dilutions were performed on a Biomek 2000 Workstation to obtain a range of closely spaced concentrations of microbicides. A cell suspension of stationary phase microorganisms, adjusted to provide 10^6 colony forming units (CFU)/mL in each well for bacteria was added to the microtiter plate. The microtiter plates were incubated for 24 hours at 30° C. for Mycobacterium immunogenum and 37° C. for Mycobacterium chelonae. The presence or absence of microbial growth was determined by measuring the turbidity in each well using a Thermomax microplate reader set at an absorbance of 650 nm. The lowest concentration of compound in which no growth was observed was considered the MIC value for the microbicide. The MIC value for each microbicide was determined from the average of four determinations for bacteria.
as §1

[6] = test system: Mycobacterium chelonae (ATCC 14472); assay: High resolution MIC test, pure culture, 1/10x TSB; format: cell-based; details: M. chelonae, 24 hours at 37° C.
Experimental: as §3, §1

[7] = Stability in buffered water at various pH and temperatures (HPLC); format: physicochemical
Experimental: Biocides were added to buffer solutions and stability was tested at 22° and 50° C. using HPLC to measure biocide concentration at 0 time, 21 days, 43 days, and 88-90 days. Biocide stability was determined in the following buffer solutions: pH2, 0.01M HCl; pH6, 0.1M KH2PO4; pH8, 0.025M borate; pH10, 0.025M borate; pH12, 0.05M Na2HPO4. Biocide concentrations tested were 100 ppm MI, 200 ppm BIT, 44 ppm CMI.

[8] = Stability in high pH metalworking fluid use dilutions (HPLC); format: physicochemical; details: for % CMIT Remaining (without MCC) / % CMIT Remaining (with MCC): 25° C.; for % CMIT Remaining (with MCC): MCC 300 ppm
Experimental: Stability studies were conducted in three high pH metalworking fluid use dilutions to compare the persistence of MIT biocide versus CMIT biocide, tested alone and in combination with MCC). Aliquots of the use-diluted fluids were dosed with 17.5 ppm active CMIT/MIT and CMIT/MIT/MCC and stored at 25° C. Biocide concentrations were determined at time zero and weekly using high performance liquid chromatography (HPLC) analysis.

[9] = Fluid 1, 48 hours, 50% of recommended maximum dose
[10] = Fluid 1, 48 hours, 100% of recommended maximum dose
[11] = Fluid 2, 48 hours, 50% of recommended maximum dose
[12] = Fluid 2, 48 hours, 100% of recommended maximum dose
[13] = Fluid 3, 48 hours, 50% of recommended maximum dose
[14] = Fluid 3, 48 hours, 100% of recommended maximum dose
[15] = Fluid 4, 48 hours, 50% of recommended maximum dose
[16] = Fluid 4, 48 hours, 100% of recommended maximum dose
[17] = Fluid 5, 48 hours, 50% of recommended maximum dose
[18] = Fluid 5, 48 hours, 100% of recommended maximum dose
[19] = Fluid 6, 48 hours, 50% of recommended maximum dose
[20] = Fluid 6, 48 hours, 100% of recommended maximum dose
[21] = Synthetic Fluid 2 (pH 9.4), 1 wk
[22] = Synthetic Fluid 2 (pH 9.4), 3 wk

## O=[N+]([O-])C(Br)(CO)CO [BNPD, 2-bromo-2-nitro-propane-1,3-diol]
[1]; 0 h
  Percent Remaining after: 0: 100%
[1]; 5 h
  Percent Remaining after: 5 hr: 0%
[1]; 24 h
  Percent Remaining after: 1 day: 0%

## Cc1cc(O)ccc1Cl [PCMC]
[2]; [9]
  Log Reduction in Mycobacterial Counts versus Control (no biocide): 0.00 log
[2]; [10]
  Log Reduction in Mycobacterial Counts versus Control (no biocide): 5.88 log
[2]; [11]
  Log Reduction in Mycobacterial Counts versus Control (no biocide): 1.00 log
[2]; [12]
  Log Reduction in Mycobacterial Counts versus Control (no biocide): 5.00 log
[2]; [13]
  Log Reduction in Mycobacterial Counts versus Control (no biocide): 0.00 log
[2]; [14]
  Log Reduction in Mycobacterial Counts versus Control (no biocide): 1.00 log
[2]; [15]
  Log Reduction in Mycobacterial Counts versus Control (no biocide): 5.24 log
[2]; [16]
  Log Reduction in Mycobacterial Counts versus Control (no biocide): 5.24 log
[2]; [17]
  Log Reduction in Mycobacterial Counts versus Control (no biocide): 0.51 log
[2]; [18]
  Log Reduction in Mycobacterial Counts versus Control (no biocide): 0.90 log
[2]; [19]
  Log Reduction in Mycobacterial Counts versus Control (no biocide): 3.88 log
[2]; [20]
  Log Reduction in Mycobacterial Counts versus Control (no biocide): 3.88 log
[3]
  Minimum Biocidal Concentration: 75 ppm active
[4]
  Minimum Biocidal Concentration: 60 ppm active
[5]
  Minimum Inhibitory Concentration: 35 ppm active
[6]
  Minimum Inhibitory Concentration: 20 ppm active

## Cn1sc(Cl)cc1=O [CMI, 5-chloro-2-methyl-4-isothiazolin-3-one]
[7]; 22° C., day 0
  Percent Remaining at: pH 2: 100%
  Percent Remaining at: pH 6: 100%
  Percent Remaining at: pH 8: 100%
  Percent Remaining at: pH 10: 100%
  Percent Remaining at: pH 12: 100%
[7]; 22° C., day 21
  Percent Remaining at: pH 2: 100%
  Percent Remaining at: pH 6: 100%
  Percent Remaining at: pH 8: 100%
  Percent Remaining at: pH 10: 0%
  Percent Remaining at: pH 12: 0%
[7]; 22° C., day 43
  Percent Remaining at: pH 2: 100%
  Percent Remaining at: pH 6: 100%
  Percent Remaining at: pH 8: 91%
  Percent Remaining at: pH 10: 0%
  Percent Remaining at: pH 12: 0%
[7]; 22° C., day 88
  Percent Remaining at: pH 2: 100%
  Percent Remaining at: pH 6: 100%
  Percent Remaining at: pH 8: 95%
  Percent Remaining at: pH 10: 0%
  Percent Remaining at: pH 12: 0%
[7]; 50° C., day 0
  Percent Remaining at: pH 2: 100%
  Percent Remaining at: pH 6: 100%
  Percent Remaining at: pH 8: 100%
  Percent Remaining at: pH 10: 100%
  Percent Remaining at: pH 12: 100%
[7]; 50° C., day 21
  Percent Remaining at: pH 2: 100%
  Percent Remaining at: pH 6: 100%
  Percent Remaining at: pH 8: 15%
  Percent Remaining at: pH 10: 0%
  Percent Remaining at: pH 12: 0%
[7]; 50° C., day 43
  Percent Remaining at: pH 2: 93%
  Percent Remaining at: pH 6: 65%
  Percent Remaining at: pH 8: 0%
  Percent Remaining at: pH 10: 0%
  Percent Remaining at: pH 12: 0%
[7]; 50° C., day 88
  Percent Remaining at: pH 2: 100%
  Percent Remaining at: pH 6: 30%
  Percent Remaining at: pH 8: 0%
  Percent Remaining at: pH 10: 0%
  Percent Remaining at: pH 12: 0%
[8]; Soluble Fluid 1 (pH 9.2), 2 wk
  % CMIT Remaining (without MCC): 28%
  % CMIT Remaining (with MCC): 38%
[8]; Soluble Fluid 1 (pH 9.2), 4 wk
  % CMIT Remaining (without MCC): 10%
  % CMIT Remaining (with MCC): 18%
[8]; Soluble Fluid 3 (pH 9.3), 2 wk
  % CMIT Remaining (without MCC): 25%
  % CMIT Remaining (with MCC): 35%
[8]; Soluble Fluid 3 (pH 9.3), 4 wk
  % CMIT Remaining (without MCC): 0%
  % CMIT Remaining (with MCC): 16%
[8]; [21]
  % CMIT Remaining (without MCC): 13%
  % CMIT Remaining (with MCC): 42%
[8]; [22]
  % CMIT Remaining (without MCC): 0* %
  % CMIT Remaining (with MCC): 0%
[8]; after 3-4 weeks in the three fluids, 300 ppm MCC
  biocide remaining, CMIT with MCC: ≤ 16%
[8]; after 3-4 weeks in the three fluids, without MCC
  biocide remaining, CMIT alone: none remaining

## OCCN1CN(CCO)CN(CCO)C1 [Triazine]
[2]; [9]
  Log Reduction in Mycobacterial Counts versus Control (no biocide): 0.00 log
[2]; [10]
  Log Reduction in Mycobacterial Counts versus Control (no biocide): 0.00 log
[2]; [11]
  Log Reduction in Mycobacterial Counts versus Control (no biocide): 0.00 log
[2]; [12]
  Log Reduction in Mycobacterial Counts versus Control (no biocide): 0.12 log
[2]; [13]
  Log Reduction in Mycobacterial Counts versus Control (no biocide): 0.00 log
[2]; [14]
  Log Reduction in Mycobacterial Counts versus Control (no biocide): 0.00 log
[2]; [15]
  Log Reduction in Mycobacterial Counts versus Control (no biocide): 0.00 log
[2]; [16]
  Log Reduction in Mycobacterial Counts versus Control (no biocide): 0.00 log
[2]; [17]
  Log Reduction in Mycobacterial Counts versus Control (no biocide): 0.06 log
[2]; [18]
  Log Reduction in Mycobacterial Counts versus Control (no biocide): 0.00 log
[2]; [19]
  Log Reduction in Mycobacterial Counts versus Control (no biocide): 0.00 log
[2]; [20]
  Log Reduction in Mycobacterial Counts versus Control (no biocide): 0.00 log
[2]; 50% of recommended maximum dose
  No. of Fluids with ≧99% Kill (2-log reduction): 0
[2]; 100% of recommended maximum dose
  No. of Fluids with ≧99% Kill (2-log reduction): 0
[3]
  Minimum Biocidal Concentration: 314 ppm active
[4]
  Minimum Biocidal Concentration: 314 ppm active
[5]
  Minimum Inhibitory Concentration: 39 ppm active
[6]
  Minimum Inhibitory Concentration: 43 ppm active

## C1COCN1 [Oxazolidine]
[3]
  Minimum Biocidal Concentration: 836 ppm active
[4]
  Minimum Biocidal Concentration: 34 ppm active
[5]
  Minimum Inhibitory Concentration: 38 ppm active
[6]
  Minimum Inhibitory Concentration: 42 ppm active
